Literature values in patent publication US20250074936A1, “A PROCESS FOR ISOLATION OF SAPONINS UTTROSIDE B AND UTTROSIDE A FROM SOLANUM NIGRUM LINN” (COUNCIL OF SCIENTIFIC AND INDUSTRIAL RESEARCH AN INDIAN …, priority 2022, published 2025).

Key:
HeLa cells = conditions: read-out: moderate cytotoxicity against HeLa cells, IC50
PC-12 = PC-12 cells; read-out: cytotoxicity towards PC-12, IC50
HCT-16 = HCT-16 cells; read-out: cytotoxicity towards HCT-16, IC50

Structure (SMILES) | IC50 (HeLa cells) [nM] | IC50 (PC-12) [nM] | IC50 (HCT-16) [nM]
CO[C@]1(CC[C@@H](C)COC2OC(CO)C(O)C(O)C2O)OC2C[C@H]3[C@@H]4CC[C@H]5C[C@@H](OC6OC(CO)C(OC7OC(CO)C(O)C(OC8OCC(O)C(O)C8O)C7OC7OC(CO)C(O)C(O)C7O)C(O)C6O)CC[C@]5(C)[C@H]4CC[C@]3(C)C2[C@@H]1C (stereo partly drawn) [uttroside A] | 15400 |  | 
C[C@H](CC[C@@]1(O)OC2C[C@H]3[C@@H]4CC[C@H]5C[C@@H](OC6OC(CO)C(OC7OC(CO)C(O)C(OC8OCC(O)C(O)C8O)C7OC7OC(CO)C(O)C(O)C7O)C(O)C6O)CC[C@]5(C)[C@H]4CC[C@]3(C)C2[C@@H]1C)COC1OC(CO)C(O)C(O)C1O (stereo partly drawn) [uttroside B] |  | 1200 | 2330
